Experimental data: patent US8299111B2, “Compounds which modulate the CB2 receptor” (Boehringer Ingelheim International GmbH, priority 2006, dated 2012)

These molecules were tested against T1, human CB2R (Homo sapiens, UniProt P34972) (assay: CB2R mediated modulation of cAMP synthesis). Settings: found through the use of the above described assays (binding and cAMP); CHO cells expressing human CB2R, forskolin-stimulated cAMP.
T1 construct: host or cells: CHO cells
Format: cell-based
Method in brief: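 EC50 values reflect inhibition of cAMP made in response to 10 uM forskolin (with 1 mM IBMX, 0.25% BSA) over 30 min at 37 °C in human CB2R-expressing CHO cells. The window runs from forskolin alone to 1 uM CP55940; curves fitted with a four-parameter logistic model.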

T1 sequence (P34972 whole entry): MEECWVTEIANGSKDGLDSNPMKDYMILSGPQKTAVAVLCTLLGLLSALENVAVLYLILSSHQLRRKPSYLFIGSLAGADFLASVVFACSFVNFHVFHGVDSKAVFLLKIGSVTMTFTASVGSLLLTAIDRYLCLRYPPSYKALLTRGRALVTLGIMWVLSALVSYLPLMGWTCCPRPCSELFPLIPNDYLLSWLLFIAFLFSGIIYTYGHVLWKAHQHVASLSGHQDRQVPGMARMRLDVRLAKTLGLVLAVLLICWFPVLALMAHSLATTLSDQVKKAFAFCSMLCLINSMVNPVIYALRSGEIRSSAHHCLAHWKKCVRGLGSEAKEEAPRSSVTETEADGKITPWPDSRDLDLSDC

Q: `CC(C)(C)c1csc(NC(=O)C(C)(C)S(=O)(=O)c2ccc(Cl)cc2)n1` [N-(4-tert-Butyl-thiazol-2-yl)-2-(4-chloro-benzenesulfonyl)-2-methyl-propionamide] was tested. Which agonistic activity did it give?
A: agonistic activity

Q: For `CC(C)(C)c1csc(NC(=O)C(C)(C)S(=O)(=O)c2ccc(C#N)cc2F)n1` [N-(4-tert-Butyl-thiazol-2-yl)-2-(4-cyano-2-fluoro-benzenesulfonyl)-2-methyl-propionamide], which agonistic activity is on record?
A: agonistic activity

Q: Which agonistic activity does the source give for `CC(C)(C)c1csc(NC(=O)C(C)(C)S(=O)(=O)c2ccc(F)cc2)n1` [N-(4-tert-Butyl-thiazol-2-yl)-2-(4-fluoro-benzenesulfonyl)-2-methyl-propionamide] here?
A: agonistic activity

Q: `CC(C)(C)c1csc(NC(=O)C(C)(C)S(=O)(=O)c2ccc(Cl)nc2)n1` [N-(4-tert-Butyl-thiazol-2-yl)-2-(6-chloro-pyridine-3-sulfonyl)-2-methyl-propionamide] was tested. Which agonistic activity did it give?
A: agonistic activity

Q: How did the agonistic activity turn out when `COc1ccc(S(=O)(=O)C(C)(C)C(=O)Nc2nc(C(C)(C)C)cs2)cn1` [N-(4-tert-Butyl-thiazol-2-yl)-2-(6-methoxy-pyridine-3-sulfonyl)-2-methyl-propionamide] was run?
A: agonistic activity

Q: With `CC(C)(C)c1csc(NC(=O)C(C)(C)S(=O)(=O)c2cccc(C(F)(F)F)c2)n1` [N-(4-tert-Butyl-thiazol-2-yl)-2-methyl-2-(3-trifluoromethyl-benzenesulfonyl)-propionamide] as the molecule, how does the agonistic activity read?
A: agonistic activity

Q: With `CC(C)(C)c1csc(NC(=O)C(C)(C)S(=O)(=O)c2ccc(C(F)(F)F)cc2)n1` [N-(4-tert-Butyl-thiazol-2-yl)-2-methyl-2-(4-trifluoromethyl-benzenesulfonyl)-propionamide] as the molecule, how does the agonistic activity read?
A: agonistic activity

Q: `CC(C)(C)c1csc(NC(=O)C(C)(C)S(=O)(=O)c2ccc(C(F)(F)F)nc2)n1` [N-(4-tert-Butyl-thiazol-2-yl)-2-methyl-2-(6-trifluoromethyl-pyridine-3-sulfonyl)-propionamide] was tested. Which agonistic activity did it give?
A: agonistic activity

Q: Which agonistic activity does the source give for `CC(C)(C)c1csc(NC(=O)C(C)(C)S(=O)(=O)c2ccc3ccccc3c2)n1` [N-(4-tert-Butyl-thiazol-2-yl)-2-methyl-2-(naphthalene-2-sulfonyl)-propionamide] here?
A: agonistic activity

Q: With `CC(C)(C)c1csc(NC(=O)C(C)(C)S(=O)(=O)c2cccnc2)n1` [N-(4-tert-Butyl-thiazol-2-yl)-2-methyl-2-(pyridine-3-sulfonyl)-propionamide] as the molecule, how does the agonistic activity read?
A: agonistic activity

Q: Which agonistic activity does the source give for `Cc1ccccc1S(=O)(=O)C(C)(C)C(=O)Nc1nc(C(C)(C)C)cs1` [N-(4-tert-Butyl-thiazol-2-yl)-2-methyl-2-(toluene-2-sulfonyl)-propionamide] here?
A: agonistic activity

Q: For `Cc1ccc(S(=O)(=O)C(C)(C)C(=O)Nc2nc(C(C)(C)C)cs2)cc1` [N-(4-tert-Butyl-thiazol-2-yl)-2-methyl-2-(toluene-4-sulfonyl)-propionamide], which agonistic activity is on record?
A: agonistic activity

Q: Which agonistic activity does the source give for `CC(C)C(C(=O)Nc1nc(C(C)(C)C)cs1)S(=O)(=O)c1ccc(C(F)(F)F)cc1` (stereo not shown) [N-(4-tert-Butyl-thiazol-2-yl)-3-methyl-2-(4-trifluoromethyl-benzenesulfonyl)-butyramide] here?
A: agonistic activity

Q: Which agonistic activity does the source give for `COc1ccc(S(=O)(=O)C(C)(C)C(=O)Nc2nc(C(C)(C)C)cs2)cc1` [N-(4-tert-butyl-1,3-thiazol-2-yl)-2-[(4-methoxyphenyl)sulfonyl]-2-methylpropanamide] here?
A: agonistic activity

Q: With `CC(C)(C)c1nc(NC(=O)C(C)(C)S(=O)(=O)c2ccc(Cl)cc2)sc1C#N` [N-(4-tert-butyl-5-cyano-1,3-thiazol-2-yl)-2-[(4-chlorophenyl)sulfonyl]-2-methylpropanamide] as the molecule, how does the agonistic activity read?
A: agonistic activity

Q: `CC(C)(C)c1ccc(NC(=O)C(C)(C)S(=O)(=O)c2ccc(Cl)cc2F)cc1` [N-(4-tert-butylphenyl)-2-[(4-chloro-2-fluorophenyl)sulfonyl]-2-methylpropanamide] was tested. Which agonistic activity did it give?
A: agonistic activity
